The values below come from ChEMBL document CHEMBL3507680, “University of Dundee, Gates Library screen for HepG2 cell viability”.

The nature of the data set: Human HepG2 cell viability assay in 384 well format. Format: toxicity, cell-based. Further details: dose 125 nL, time 70.5 hour; concentration not given beside the values. The following applies: HepG2 cells, read-out: Inhibition.

`O=C(C[S+]([O-])Cc1c(Cl)cccc1Cl)N1CCc2sccc2C1` (centres undefined): the cytotoxicity at 70.5 h was -7.37%.

`O=C(C[S+]([O-])Cc1ccc(F)cc1)N1CCc2sccc2C1` (centres undefined): the cytotoxicity at 70.5 h was -9.59%.

Turning to `Cc1cc(N)nc(SC2CCN(c3ccccc3F)C2=O)n1` (centres undefined), the cytotoxicity at 70.5 h turned out to be 19%.

Turning to `O=c1c2cccnc2cnn1CC(O)c1ccc(F)c(F)c1` (centres undefined), the cytotoxicity at 70.5 h was -6.63%.

With `O=c1c2cccnc2cnn1CC(O)c1ccc(Br)cc1` (centres undefined), the cytotoxicity at 70.5 h was found to be 12%.

On to `Cc1cc(N)nc(SC2CCN(c3ccccc3)C2=O)n1` (centres undefined), for which the cytotoxicity at 70.5 h was -2.2%.

In the case of `CC(C)c1nnc(NC(=O)c2cccc(OCC(F)(F)F)n2)[nH]1`, the cytotoxicity at 70.5 h is -3.15%.

Turning to `O=C(Nc1cc(C2CCOCC2)[nH]n1)c1cscn1`, the cytotoxicity at 70.5 h is -7.61%.

Turning to `CN(C(=O)CCOc1ccccc1)C1CCN(CC2CCOC2)CC1` (centres undefined), the cytotoxicity at 70.5 h is -8.86%.

For the compound `Cc1n[nH]c(C)c1NC(=O)c1cccc(OCC(F)(F)F)n1`, the cytotoxicity at 70.5 h is -10.8%.

With `Cc1ccoc1C(=O)NCCOc1ccc(C(F)(F)F)cn1`, the cytotoxicity at 70.5 h was 18.3%.

Consider `CN1CCCN(S(C)(=O)=O)c2cc(F)ccc21`, for which the cytotoxicity at 70.5 h is -3.48%.

With `Cc1nnc2ccc(NCC3(N4CCCCC4)CCOCC3)nn12`, the cytotoxicity at 70.5 h is -4.4%.

Consider `CCN(Cc1ccoc1)C(=O)c1cc(S(N)(=O)=O)c(C)o1`, for which the cytotoxicity at 70.5 h is -5.31%.

`CC(NCc1cnc(C2CCC2)s1)c1ccc(-n2cncn2)cc1` (centres undefined): the cytotoxicity at 70.5 h was -5.3%.

For `CC1C(=O)Nc2cccnc2N1S(=O)(=O)c1cc(F)cc(F)c1` (centres undefined), the cytotoxicity at 70.5 h is 16%.

With `Cc1nc(C)c(C(C)NC(=O)NCCNc2cccc(F)c2C#N)s1` (centres undefined), the cytotoxicity at 70.5 h is -8.61%.

As for `CCN(Cc1ccoc1)C(=O)c1cc2c(c(S(N)(=O)=O)c1)CCC2`, the cytotoxicity at 70.5 h was -8.02%.

With `CC(NCc1cnc(C2CCC2)s1)c1cccc(-n2cccn2)c1` (centres undefined), the cytotoxicity at 70.5 h was found to be 16.3%.

Regarding `CC(NCc1cnc(C2CCC2)s1)c1cccc(-n2ccnc2)c1` (centres undefined), the cytotoxicity at 70.5 h was -5.22%.

With `Cc1cccc(C2(C(=O)NCC(C)CN3CCCC3=O)CC2)c1` (centres undefined), the cytotoxicity at 70.5 h was -11.5%.

`NC(=O)C1CCN(C(=O)c2ccccc2OCc2ccncc2)CC1`: the cytotoxicity at 70.5 h was -12.3%.

Take `Cc1cccc(COc2ccccc2C(=O)N2CCC(C(N)=O)CC2)c1`: the cytotoxicity at 70.5 h amounted to 4.8%.

In the case of `Oc1ccc(N2CCN(Cc3ccc(F)cc3Br)CC2)cc1`, the cytotoxicity at 70.5 h is -7.04%.

In the case of `Cc1nc2cc(C(=O)N(CCC#N)CCC#N)ccc2n1C`, the cytotoxicity at 70.5 h was -6.33%.

Consider `CN(Cc1ccccc1)CC(C)(C)NC(=O)c1ccc(C(N)=O)cn1`, for which the cytotoxicity at 70.5 h worked out at 1.67%.

For `Cc1ccc(Br)c(S(=O)(=O)NCc2cnn(C)c2)c1`, the cytotoxicity at 70.5 h is -5.3%.

As for `Cn1ccnc1-c1noc(NCc2ccc(Cl)cc2)n1`, the cytotoxicity at 70.5 h was -8.5%.

Consider `Cn1ccnc1-c1noc(NCc2ccc(Br)cc2)n1`, for which the cytotoxicity at 70.5 h is -7.73%.

With `Cn1ccnc1-c1noc(NCc2ccccc2)n1`, the cytotoxicity at 70.5 h was -7.49%.

Take `CCc1noc(CS(=O)(=O)CC=C(C)C)n1`: the cytotoxicity at 70.5 h is -9.04%.

Take `CC(=O)NCCCNCc1c(C)nn(CC(C)C)c1N(C)C`: the cytotoxicity at 70.5 h is -5.4%.

Regarding `CNS(=O)(=O)CC(=O)N(Cc1ccccc1)c1ccc(C)cc1`, the cytotoxicity at 70.5 h is -5.84%.

Turning to `CN(Cc1ccccc1)CC(C)(C)NC(=O)c1ccon1`, the cytotoxicity at 70.5 h is -4.18%.

Regarding `CCOCc1ccc(CNc2nc(OC)ncc2Cl)cc1`, the cytotoxicity at 70.5 h was -10.8%.

Turning to `COC1CCCN(C(=O)NCC(C)(C)SC)C1` (centres undefined), the cytotoxicity at 70.5 h was -11.6%.

Consider `Cc1ccc(-c2ncc(CN3CCOC(c4ccco4)C3)s2)o1` (centres undefined), for which the cytotoxicity at 70.5 h is -6.87%.

As to `O=C(C1CCCN(Cc2cccnc2)C1)N1CCc2sccc2C1` (centres undefined), the cytotoxicity at 70.5 h is -5.24%.

Consider `OCCCN(CCn1cncn1)c1ccccc1`, for which the cytotoxicity at 70.5 h worked out at 30.6%.

In the case of `CC(NS(=O)(=O)CCc1ccccn1)c1ccccc1Br` (centres undefined), the cytotoxicity at 70.5 h turned out to be 33.3%.

For `Cc1csc(CNC(=O)NC(C)c2ccc3c(c2)OCCO3)n1` (centres undefined), the cytotoxicity at 70.5 h was 5.07%.

Consider `CN(C)S(=O)(=O)N1CCN(C(=O)c2cc(-c3ccccc3)[nH]n2)CC1`, for which the cytotoxicity at 70.5 h is -0.515%.

As to `COCCCNC(=O)Nc1cccc(Cl)c1-n1cccn1`, the cytotoxicity at 70.5 h is -3.36%.

Take `CN(C)CC(NC(=O)c1ccn(C)c(=O)c1)c1ccccc1` (centres undefined): the cytotoxicity at 70.5 h came to 0.262%.

As to `CC(NC(=O)COC1CCCC1)c1nc(-c2ccccc2)c[nH]1` (centres undefined), the cytotoxicity at 70.5 h is -1.37%.

On to `CNC(=O)C(NC(=O)c1ccn(C)c(=O)c1)c1ccccc1` (centres undefined), for which the cytotoxicity at 70.5 h is 33.4%.

Regarding `NC(=O)C1CCCN1C1CCN(C(=O)c2ccc3c(c2)OCO3)CC1` (centres undefined), the cytotoxicity at 70.5 h is -1.65%.

Take `O=C(c1cccc2c1OCO2)N1CCC(N2CCCC2)CC1`: the cytotoxicity at 70.5 h is -1.7%.

On to `CCOCC(=O)NS(=O)(=O)c1ccc(F)cc1C(F)(F)F`, for which the cytotoxicity at 70.5 h was -4.87%.

As for `COCCS(=O)(=O)NC(C)c1cccc(C)c1C` (centres undefined), the cytotoxicity at 70.5 h was 28.4%.

Consider `CC(Sc1n[nH]c(-c2ccc3c(c2)CCC3)n1)C(N)=O` (centres undefined), for which the cytotoxicity at 70.5 h came to 0.8%.

As to `CS(=O)(=O)CCCSc1n[nH]c(-c2ccc3c(c2)CCC3)n1`, the cytotoxicity at 70.5 h was -1.26%.

Regarding `CN1C(=O)CCc2cc(NC(=O)C3CC(=O)N(CC4CC4)C3)ccc21` (centres undefined), the cytotoxicity at 70.5 h is 2.59%.

On to `Brc1ccc(NCc2ccc(Cn3ccnc3)cc2)nc1`, for which the cytotoxicity at 70.5 h amounted to 43.7%.

In the case of `NC(=O)CCSc1n[nH]c(-c2ccc3c(c2)CCC3)n1`, the cytotoxicity at 70.5 h was -1.76%.

Regarding `CCc1n[nH]c(C2CN(Cc3csc(COC)n3)CCO2)n1` (centres undefined), the cytotoxicity at 70.5 h was -7.86%.

For the compound `COCCN1CC=C(c2cccc(OC)c2)CC1`, the cytotoxicity at 70.5 h was found to be 1.42%.

Consider `CCCc1noc(CS(=O)(=O)c2cccc(OC)c2)n1`, for which the cytotoxicity at 70.5 h was -5.69%.

On to `CC(C)N(Cc1cccnc1)C(=O)CSc1ccc(C#N)cc1`, for which the cytotoxicity at 70.5 h was -8.92%.

As for `CS(=O)(=O)c1nccn1CCOc1ccc(F)cc1Cl`, the cytotoxicity at 70.5 h is -2.15%.

As to `COc1ccc2c(c1)CC(NCCCn1cc(C)cn1)CC2` (centres undefined), the cytotoxicity at 70.5 h was found to be 1.45%.

`CC(NCCN1CCC(N(C)C)CC1)c1ccc(F)cc1N(C)C` (centres undefined): the cytotoxicity at 70.5 h is 15%.

Consider `CC1CCN(CC(O)CN2CCn3c(nnc3C3CC3)C2)CC1` (centres undefined), for which the cytotoxicity at 70.5 h came out at 35.7%.

Take `Cc1cnn(CCNCc2nc(-c3ccsc3)oc2C)c1`: the cytotoxicity at 70.5 h was determined as 7.72%.

Regarding `c1ccc2nc(NCC3(N4CCOCC4)CCSC3)cnc2c1` (centres undefined), the cytotoxicity at 70.5 h was 28.5%.

For `c1nc(NCC2(N3CCOCC3)CCSC2)c2sccc2n1` (centres undefined), the cytotoxicity at 70.5 h is -4.54%.

Take `Cc1cc(C)cc(C(C)NC(=O)c2ccc(CS(C)(=O)=O)o2)c1` (centres undefined): the cytotoxicity at 70.5 h was -3.42%.

Take `Cc1nc(S(=O)(=O)CCn2cccn2)n(C2CCCCC2)c1C`: the cytotoxicity at 70.5 h is -4.93%.

As for `CS(=O)(=O)CCOCCNc1cncc(Br)c1`, the cytotoxicity at 70.5 h is -3.24%.

For `CCc1cnc(CNC(=O)N2CCCC(C(=O)NC)C2)s1` (centres undefined), the cytotoxicity at 70.5 h turned out to be 12.5%.

Take `CCC(O)CN1CCN(C(=O)Cc2c(C)nc(C)[nH]c2=O)CC1` (centres undefined): the cytotoxicity at 70.5 h turned out to be 3.13%.

Take `c1csc(-c2nnc(CSCCN3CCOCC3)o2)c1`: the cytotoxicity at 70.5 h came out at 12.2%.

For the compound `COc1cc(CNc2nncs2)cc(OC)c1OC`, the cytotoxicity at 70.5 h is 12.6%.

For the compound `COc1ccc(CNc2nncs2)cc1F`, the cytotoxicity at 70.5 h is -2.65%.

Turning to `Fc1cc(CNc2nncs2)ccc1Cl`, the cytotoxicity at 70.5 h was -2.31%.

In the case of `Cc1cccc(C(C)CNC(=O)N2CCC3(C2)OCCO3)c1` (centres undefined), the cytotoxicity at 70.5 h is 12.8%.

Consider `COCCOCCNc1cncc(Br)c1`, for which the cytotoxicity at 70.5 h is -0.213%.

As for `CCCN(C)CC1CCN(c2ccc(Br)c(C)n2)C1` (centres undefined), the cytotoxicity at 70.5 h worked out at 4.09%.

As for `OC1CCN(Cc2ccc(CNc3ncc(Cl)cc3F)cc2)CC1`, the cytotoxicity at 70.5 h is 14.7%.

Turning to `Cc1nc(CNC(=O)N2CCCC(c3ncc[nH]3)C2)sc1C` (centres undefined), the cytotoxicity at 70.5 h was -5.05%.

For `CCC(CNC(=O)N1CCOCC2(CCOCC2)C1)c1ccccc1` (centres undefined), the cytotoxicity at 70.5 h was -5.59%.

Take `CC(C)CC(C)NCCCN1CCCN(C)CC1` (centres undefined): the cytotoxicity at 70.5 h came out at 21.1%.

With `COCCCN(Cc1ccc(F)cc1Cl)C1CCS(=O)(=O)C1` (centres undefined), the cytotoxicity at 70.5 h stood at 1.64%.

Regarding `CC(CCc1ccccc1)N1CCC(C(=O)NCc2ccccc2)CC1` (centres undefined), the cytotoxicity at 70.5 h was 0.455%.

In the case of `O=S(=O)(Cc1ccc(F)cc1)NCCc1nnc2n1CCC2`, the cytotoxicity at 70.5 h is -18.4%.

Turning to `CC(CCc1ccccc1)N1CCC(C(=O)Nc2ccccn2)CC1` (centres undefined), the cytotoxicity at 70.5 h was determined as 22%.

Take `CC(CCc1ccccc1)N1CCC(C(=O)Nc2cnccn2)CC1` (centres undefined): the cytotoxicity at 70.5 h is -19.2%.

Take `CCOC(=O)CCNC(=O)c1cc(Cl)cc2cccnc12`: the cytotoxicity at 70.5 h was -4.4%.

As to `CCS(=O)(=O)N(C)CCCNC(=O)c1cc(Cl)cc2cccnc12`, the cytotoxicity at 70.5 h is -11%.

`O=C(c1cc(Cl)c[nH]1)N1CCN(CCc2ccccn2)CC1`: the cytotoxicity at 70.5 h was -16%.

As to `COc1cc(I)c(Cl)cc1C(=O)N(C)CC(=O)NC(C)(C)C`, the cytotoxicity at 70.5 h is -23.4%.

In the case of `CCn1ncc(C(=O)NCc2ccc(C)c(OC)c2)c1C(F)(F)F`, the cytotoxicity at 70.5 h is -21.3%.

As for `O=C(Cn1cc(-n2cccc2)cn1)NCC(F)(F)F`, the cytotoxicity at 70.5 h is -12.8%.

Consider `CN(Cc1nnc(-c2cccs2)o1)C(C(N)=O)c1cccc(F)c1` (centres undefined), for which the cytotoxicity at 70.5 h is -22%.

As for `Cc1ccc(NC(=O)NCCc2cnn(C)c2)c(N(C)C)n1`, the cytotoxicity at 70.5 h is 0.893%.

For `Cc1ccc(NC(=O)NCCc2ccncc2C)c(N(C)C)n1`, the cytotoxicity at 70.5 h was -16.2%.

Consider `Cc1cc(F)c(S(=O)(=O)Nc2ccn(CCC#N)n2)cc1F`, for which the cytotoxicity at 70.5 h was -16.3%.

As to `O=C(Cc1cccc(F)c1)NC1CCCc2cn[nH]c21` (centres undefined), the cytotoxicity at 70.5 h is -11.9%.

Regarding `O=S1(=O)CCN2C(=N1)Oc1ccc(S(=O)(=O)N3CCCC3)cc12`, the cytotoxicity at 70.5 h was -5.8%.

Regarding `Cc1cccc(N2CCN(C(=O)CCCC(=O)N(C)C)C(C)C2)n1` (centres undefined), the cytotoxicity at 70.5 h is -18.7%.

`CNC(=O)CN(C)C(=O)c1cc2ccccc2cc1OC`: the cytotoxicity at 70.5 h was -17.8%.

Take `N#Cc1ccccc1CN(CCO)Cc1ccsc1`: the cytotoxicity at 70.5 h was -14.1%.

For the compound `CC(C)OCCCNC(=O)NCc1cccc(-n2ccnc2)c1`, the cytotoxicity at 70.5 h was -6.74%.

`COCCN(Cc1cccc(O)c1)CC1CC1`: the cytotoxicity at 70.5 h stood at 29.9%.
